According to US11045745B2, “Reactive extraction of water” (University of Pittsburgh—Of the Commonwealth System of …, priority 2017, dated 2021):
Marks after values point to notes of the source that are not given here.

Tests used:
Format in all cases: physicochemical
[1] = Ketone hydration to diol equilibrium constant by room temperature NMR (Technique 1); settings: for KH,app at 20 ± ° C. (1H) / KH,app at 20 ± ° C. (19F): d6-DMSO/H2O (1/1, mol/mol); for KH,app at 20 ± ° C. (1H): 1H NMR; for KH,app at 20 ± ° C. (19F): 19F NMR
Experimental: (§1) Ketone hydration to diol equilibrium constants (KH) and thermodynamic parameters for Example compounds were measured by NMR by adapting techniques from the literature [Bushman et al., Berichte der Bunsengesellschaft für physikalische Chemie, 84: 41-44 (1980); Greenzaid et al., J. Amer. Chem. Soc. 89: 749-756 (1967); and R. Stewart and J. D. Van Dyke, Can. J. Chem. 50: 1992-1999 (1972)] using either Technique 1 (IIa) or Technique 2 (IIb), further deviations to the general methods are noted with those Examples. D2O concentration was minimized to reduce the isotope effect (˜20% according to Bushman 1980).
(§2) The conversion from ketone to diol results in an upfield change in nuclear chemical shift. This change in nuclear resonance frequency can then be used to distinguish between ketone and diol peaks in the NMR spectrum. Since area integration of NMR peaks is directly related to the number of atoms resonating at that frequency, the area ratio between diol and ketone peaks can be used to calculate equilibrium constants. Assuming water is in high excess relative to the ketone its activity can be treated as unity resulting in the KH being only dependent on the relative peak integration ratio of diol/ketone:
In many Examples, only a single resonance for each species was available for to determine the diol/ketone ratio. Where available equilibrium constants were calculated by averaging multiple resonance together normalized by number of hydrogens associated with each of them.
Due to the insolubility of some ketones in water, DMSO was used as a co-solvent at 50% by mole. Equilibrium constants obtained with DMSO as a co-solvent are only apparent constants (KH,app) since this alters the activities of the compounds relative to a pure water solvent. […] J. Chem. 50: 1992-1999 (1972)].
In a volumetric flask, ketones were dissolved to a concentration of approximately 0.5 M in 50 mol % d^6-DMSO/H2O. Solutions were left to equilibrate overnight then transferred to an NMR tube for analysis. Solutions were measured by ^1H NMR at (400 MHz) or ^19F NMR (376 MHz) at ambient temperature (20±1° C.).
(§3) This should not affect the measured hydration equilibrium greatly though since water is in such high excess. From Examples 2-2 to 2-5, the tunability of the hydration constant by altering the substituent on the benzyl ring is readily apparent.

[2] = Solubility in water (remark on sample preparation)
Excerpt: as §3

[3] = Ketone hydration equilibrium and thermodynamic parameters by variable temperature NMR (Technique 2), van't Hoff fit; settings: for ΔG ° / ΔH ° / −TΔS °: van't Hoff fit; for KH at 25° C. (KH,app): apparent constant
Experimental: as §1, §2
For a select set of compounds a series of variable temperature NMR measurements (IIB: Technique 2) were made to extract reaction standard enthalpy)(ΔH°) and entropy(ΔS°) contributions to free energy of hydration)(ΔG°). Equilibrium constants versus temperature data were fit to the van't Hoff equation to determine ΔH°, ΔS°, and ΔG°; changes in heat capacity were assumed to be negligible:
In a volumetric flask (1.00, 2.00, or 10.00 mL) ketones were dissolved to a concentration of approximately 0.5 M in solvents composed of either D2O/H2O (5/95, v/v; method 2a) or d^6-DMSO/DMSO/H2O (10/40/50 by moles; method 2b). The solution was left to equilibrate at room temperature overnight then transferred to a standard NMR tube.
A series of 1H NMR (400 MHz)measurements were made with variable temperature control (0.1° C. precision) ranging from 25-65° C., typically in 10° C. increments. At each increment once the temperature had stabilized to within ±0.2° C. of the goal, samples were equilibrated for 5 minutes prior to the measurement.
The van't Hoff equation was then fit to a plot of KH vs. temperature; energy standard deviation were calculated from the fit of the equation to the raw data.
Examples 2-6 and 2-11 were prepared using variations to the standard procedure. Example 2-6 was prepared with a concentration of 50 mM, so that it was soluble in water. For Example 2-11, a small amount of enol was also observed (about 0.08 relative to ketone). To account for this, we calculated KH for Example 2-11 as diol/(ketone+enol), assuming enol formation from the ketone is reversible.

Structure (SMILES) | KH,app at 20 ± ° C. (19F) [1] | KH at 25° C. ([3]; D2O/H2O (5/95, v/v)) | ΔG ° ([3]; D2O/H2O (5/95, v/v)) [kcal/mol] | ΔH ° ([3]; D2O/H2O (5/95, v/v)) [kcal/mol] | −TΔS ° ([3]; D2O/H2O (5/95, v/v)) [kcal/mol] | other results
CC(=O)C(C)(C)[N+](=O)[O-] [Example 2-1, 3-methyl-3-nitrobutan-2-one] | – | – | – | – | – | KH,app at 20 ± ° C. ([1]; D2O/H2O (5/95, v/v), 23 mM): 0.22; solubility in water [2]: low solubility in water
CC(F)(F)C(=O)c1ccccc1 [Example 2-2, 2,2-difluoro-1-phenyl-1-propanone] | 3.3 | – | – | – | – | KH,app at 20 ± ° C. (1H) [1]: 2.8
COc1ccc(C(=O)C(F)(F)F)cc1 [Example 2-3] | 23 | – | – | – | – | KH,app at 20 ± ° C. (1H) [1]: 21
O=C(c1ccccc1)C(F)(F)F [Example 2-5] | 370 (^19F) | – | – | – | – | –
O=C1CCCCC1F (stereo not drawn) [Example 2-8] | – | – | – | – | – | KH at 25° C. (KH,app) ([3]; DMSO/H2O (1/1, mol/mol)): 0.52^a; ΔG ° ([3]; DMSO/H2O (1/1, mol/mol)): 0.96 ± 0.17 kcal/mol; ΔH ° ([3]; DMSO/H2O (1/1, mol/mol)): -5.35 ± 0.096 kcal/mol; −TΔS ° ([3]; DMSO/H2O (1/1, mol/mol)): 6.31 ± 0.14 kcal/mol
O=C(CF)CF [Example 2-9] | – | 27 | -1.94 ± 0.24 | -7.5 ± 0.17 | 5.57 ± 0.17 | –

Further lines, with some results ahead:

KH,app at 20 ± ° C. (19F) [1] | KH at 25° C. ([3]; D2O/H2O (5/95, v/v)) | ΔG ° ([3]; D2O/H2O (5/95, v/v)) [kcal/mol] | ΔH ° ([3]; D2O/H2O (5/95, v/v)) [kcal/mol] | −TΔS ° ([3]; D2O/H2O (5/95, v/v)) [kcal/mol] | Structure (SMILES) | other results
500 (^19F) | – | – | – | – | O=C(c1ccc(F)cc1)C(F)(F)F [Example 2-4] | –
– | 0.063 | 1.63 ± 0.48 | -5.86 ± 0.359 | 7.48 ± 0.335 | CC(=O)C(C)(C)C#N [Example 2-6] | –
– | 2.5 | -0.526 ± 0.359 | -5.98 ± 0.359 | 5.45 ± 0.359 | CC(=O)C(C)=O [Example 2-10] | –
– | 1.5 | -0.263 ± 0.12 | -5.47 ± 0.12 | 5.21 ± 0.12 | CCC(=O)C(C)=O [Example 2-11] | KH at 25° C. (KH,app) ([3]; DMSO/H2O (1/1, mol/mol)): 0.45^a; ΔG ° ([3]; DMSO/H2O (1/1, mol/mol)): 0.48 kcal/mol; ΔH ° ([3]; DMSO/H2O (1/1, mol/mol)): -5.74 kcal/mol; −TΔS ° ([3]; DMSO/H2O (1/1, mol/mol)): 6.21 kcal/mol; enol observed relative to ketone ([3]; NMR): about 0.08
